The values below come from US20250114456A1, “ENHANCED IMMUNOTHERAPEUTIC METHOD COMPRISING COMBINED ADMINISTRATION OF PHOTODYNAMIC / RADIOTHERAPEUTIC COMPOUNDS AND IMMUNOTHERAPEUTIC AGENTS” (Theralase Technologies, Inc., priority 2023, published 2025).

Assay [1] concerns CD47 expression in A549 human Non-Small Cell Lung Cancer cells. The experiment in a line: CD47 expression by flow cytometry, A549 cells, with or without radiation. Format: cell-based. As to conditions: 4 hours, overnight incubation, FIG. 6. Here is the method:
A549 human Non-Small Cell Lung Cancer (“NSCLC”) cells were treated with RUVIDAR or RUTHERRIN for four (4) hours, then cells were treated with radiation or left untreated and then incubated further overnight before cell collection and analysis of CD47 expression by flow cytometry.
On the technique in general: Flow cytometry measures light scatter and fluorescence of single cells or particles in a stream.

The next assay relates to A549 human NSCLC cells. As to the kind of experiment: ATP secretion quantification in supernatant, A549 cells, with radiation. Format: cell-based. Conditions: 4 hours, combined with radiation, supernatant 1 hour after, FIG. 8. Here is the method:
A549 human NSCLC cells were treated with RUVIDAR or RUTHERRIN for four (4) hours, then cells were treated with radiation or left untreated, and then incubated further for one (1) hour before collection of supernatant for ATP secretion quantification.

A further assay has as its system VISTA and PDL1/L2. As to conditions: multiple preclinical models; cited from earlier work.

Turning to `Cc1ccnc(-c2cc(C)ccn2)c1.Cc1ccnc(-c2cc(C)ccn2)c1.[Cl-].[Cl-].[Ru+2].c1csc(-c2ccc(-c3ccc(-c4nc5c6cccnc6c6ncccc6c5[nH]4)s3)s2)c1` [RUVIDAR, Ru(4,4′-dimethyl-2,2′-bipyridine)2(2-(2′,2″:5″,2′-terthiophene)-imidazo[4,5-f][1,10]phenanthroline) chloride], the CD47 expression result was “significantly reduced expression” in assay [1] (radiation treatment added) and “downregulated CD47 expression” in assay [1] (without radiation treatment). In addition, in the assay on A549 human NSCLC cells, the ATP release result is given as “significantly increased ATP release”.
Turning to `C[C@@H](O)[C@H](NC(=O)N[C@@H](CC(N)=O)c1nc([C@H](N)CO)no1)C(=O)O` [CA-170], the anti-tumor activity result in the assay with VISTA and PDL1/L2 is on record as “demonstrated anti-tumor activity in multiple preclinical models”.
